Assay results as given in PubChem BioAssay AID1845210 (Molecular Pharmacology Branch, DTP, NCI, 2023).

Tested on: NCI-H226 complex tumor spheroids, viability
Experiment: Anticancer human tumor NCI-H226 cell line growth inhibition;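 further: spheroids exposed to compound for 7 days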;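 on viability, T/C: 100% = DMSO vehicle control viability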
Settings: for IC50: curve of first compound; for viability, T/C: stronger effect = lower value
Outline: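 Complex spheroids of malignant cells with endothelial cells and mesenchymal stem cells; agents alone or combined, from near clinical Cmax (or 10 microM if unknown) down in half-log steps, 0.25% DMSO final.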

[1] = second compound 1 µM, first compound 0.0316 µM
[2] = second compound 1 µM, first compound 0.1 µM
[3] = second compound 1 µM, first compound 0.316 µM
[4] = second compound 1 µM, first compound 1 µM
[5] = second compound 1 µM, first compound 3.16 µM
[6] = second compound 1 µM, first compound 10 µM
[7] = second compound 3.16 µM, first compound 0.0316 µM
[8] = second compound 3.16 µM, first compound 0.1 µM
[9] = second compound 3.16 µM, first compound 0.316 µM
[10] = second compound 3.16 µM, first compound 1 µM
[11] = second compound 3.16 µM, first compound 3.16 µM
[12] = second compound 3.16 µM, first compound 10 µM
[13] = second compound 10 µM, first compound 0.0316 µM
[14] = second compound 10 µM, first compound 0.1 µM
[15] = second compound 10 µM, first compound 0.316 µM
[16] = second compound 10 µM, first compound 1 µM
[17] = second compound 10 µM, first compound 3.16 µM
[18] = second compound 10 µM, first compound 10 µM
[19] = second compound 31.6 µM, first compound 0.0316 µM
[20] = second compound 31.6 µM, first compound 0.1 µM
[21] = second compound 31.6 µM, first compound 0.316 µM
[22] = second compound 31.6 µM, first compound 1 µM
[23] = second compound 31.6 µM, first compound 3.16 µM
[24] = second compound 31.6 µM, first compound 10 µM
[25] = second compound 100 µM, first compound 0.0316 µM
[26] = second compound 100 µM, first compound 0.1 µM
[27] = second compound 100 µM, first compound 0.316 µM
[28] = second compound 100 µM, first compound 1 µM
[29] = second compound 100 µM, first compound 3.16 µM
[30] = second compound 100 µM, first compound 10 µM

## CC1COCCN1c1cc(-c2ccnn2C)c2ccnc(-c3ccn[nH]3)c2n1 (stereo not given) + Cn1nnc2c(C(N)=O)ncn2c1=O
Second compound 1 µM
  IC50: 1.89 µM
Second compound 3.16 µM
  IC50: 1.75 µM
Second compound 10 µM
  IC50: 2.01 µM
Second compound 31.6 µM
  IC50: 2.02 µM
Second compound 100 µM
  IC50: 2.41 µM
[1]
  viability, T/C: 88.1%
[2]
  viability, T/C: 86.8%
[3]
  viability, T/C: 79.3%
[4]
  viability, T/C: 59.6%
[5]
  viability, T/C: 42.4%
[6]
  viability, T/C: 35.9%
[7]
  viability, T/C: 98.8%
[8]
  viability, T/C: 86.1%
[9]
  viability, T/C: 78.4%
[10]
  viability, T/C: 50.8%
[11]
  viability, T/C: 47.8%
[12]
  viability, T/C: 34.9%
[13]
  viability, T/C: 105%
[14]
  viability, T/C: 88.6%
[15]
  viability, T/C: 73%
[16]
  viability, T/C: 59.3%
[17]
  viability, T/C: 43.1%
[18]
  viability, T/C: 36.1%
[19]
  viability, T/C: 90.2%
[20]
  viability, T/C: 91.5%
[21]
  viability, T/C: 74.7%
[22]
  viability, T/C: 58.3%
[23]
  viability, T/C: 46.1%
[24]
  viability, T/C: 37.9%
[25]
  viability, T/C: 116%
[26]
  viability, T/C: 107%
[27]
  viability, T/C: 92.9%
[28]
  viability, T/C: 61.5%
[29]
  viability, T/C: 46.2%
[30]
  viability, T/C: 42.5%

## COc1cc(C)[nH]c(=O)c1CN1CCc2c(Cl)cc(C(OC)C3COC3)c(Cl)c2C1=O (stereo not given) + Cn1nnc2c(C(N)=O)ncn2c1=O
Second compound 1 µM
  IC50: > 10 µM
Second compound 3.16 µM
  IC50: > 10 µM
Second compound 10 µM
  IC50: > 10 µM
Second compound 31.6 µM
  IC50: > 10 µM
Second compound 100 µM
  IC50: > 10 µM
[1]
  viability, T/C: 133%
[2]
  viability, T/C: 131%
[3]
  viability, T/C: 130%
[4]
  viability, T/C: 133%
[5]
  viability, T/C: 129%
[6]
  viability, T/C: 132%
[7]
  viability, T/C: 117%
[8]
  viability, T/C: 138%
[9]
  viability, T/C: 124%
[10]
  viability, T/C: 121%
[11]
  viability, T/C: 136%
[12]
  viability, T/C: 108%
[13]
  viability, T/C: 132%
[14]
  viability, T/C: 128%
[15]
  viability, T/C: 125%
[16]
  viability, T/C: 136%
[17]
  viability, T/C: 128%
[18]
  viability, T/C: 127%
[19]
  viability, T/C: 124%
[20]
  viability, T/C: 144%
[21]
  viability, T/C: 132%
[22]
  viability, T/C: 125%
[23]
  viability, T/C: 135%
[24]
  viability, T/C: 145%
[25]
  viability, T/C: 118%
[26]
  viability, T/C: 132%
[27]
  viability, T/C: 136%
[28]
  viability, T/C: 146%
[29]
  viability, T/C: 137%
[30]
  viability, T/C: 150%

## COc1ccc([C@@H](O)c2cc(-c3ncnc4cc(N5CCOCC5)ccc34)c(F)cc2Cl)nn1 + Cn1nnc2c(C(N)=O)ncn2c1=O
Second compound 1 µM
  IC50: 4.71 µM
Second compound 3.16 µM
  IC50: 2.97 µM
Second compound 10 µM
  IC50: 3.43 µM
Second compound 31.6 µM
  IC50: 3.69 µM
Second compound 100 µM
  IC50: 4.53 µM
[1]
  viability, T/C: 94.3%
[2]
  viability, T/C: 100%
[3]
  viability, T/C: 89%
[4]
  viability, T/C: 66.8%
[5]
  viability, T/C: 60.8%
[6]
  viability, T/C: 37.5%
[7]
  viability, T/C: 95.2%
[8]
  viability, T/C: 101%
[9]
  viability, T/C: 92.2%
[10]
  viability, T/C: 67.9%
[11]
  viability, T/C: 52.1%
[12]
  viability, T/C: 38.1%
[13]
  viability, T/C: 86.9%
[14]
  viability, T/C: 89.4%
[15]
  viability, T/C: 90.4%
[16]
  viability, T/C: 73.8%
[17]
  viability, T/C: 52.1%
[18]
  viability, T/C: 34.4%
[19]
  viability, T/C: 98.5%
[20]
  viability, T/C: 91.8%
[21]
  viability, T/C: 91%
[22]
  viability, T/C: 67.5%
[23]
  viability, T/C: 54.2%
[24]
  viability, T/C: 36.7%
[25]
  viability, T/C: 111%
[26]
  viability, T/C: 107%
[27]
  viability, T/C: 95.8%
[28]
  viability, T/C: 75.9%
[29]
  viability, T/C: 56.1%
[30]
  viability, T/C: 38.1%

## Cc1cc(C)c(CNC(=O)c2cc(-c3ccc(CN4CCOCC4)cc3)cc3c2cnn3C2CCCC2)c(=O)[nH]1 + Cn1nnc2c(C(N)=O)ncn2c1=O
Second compound 1 µM
  IC50: > 10 µM
Second compound 3.16 µM
  IC50: > 10 µM
Second compound 10 µM
  IC50: > 10 µM
Second compound 31.6 µM
  IC50: > 10 µM
Second compound 100 µM
  IC50: > 10 µM
[1]
  viability, T/C: 113%
[2]
  viability, T/C: 125%
[3]
  viability, T/C: 106%
[4]
  viability, T/C: 115%
[5]
  viability, T/C: 131%
[6]
  viability, T/C: 102%
[7]
  viability, T/C: 125%
[8]
  viability, T/C: 135%
[9]
  viability, T/C: 113%
[10]
  viability, T/C: 113%
[11]
  viability, T/C: 97.4%
[12]
  viability, T/C: 119%
[13]
  viability, T/C: 128%
[14]
  viability, T/C: 136%
[15]
  viability, T/C: 122%
[16]
  viability, T/C: 109%
[17]
  viability, T/C: 111%
[18]
  viability, T/C: 125%
[19]
  viability, T/C: 123%
[20]
  viability, T/C: 108%
[21]
  viability, T/C: 116%
[22]
  viability, T/C: 109%
[23]
  viability, T/C: 103%
[24]
  viability, T/C: 144%
[25]
  viability, T/C: 108%
[26]
  viability, T/C: 114%
[27]
  viability, T/C: 122%
[28]
  viability, T/C: 130%
[29]
  viability, T/C: 110%
[30]
  viability, T/C: 132%

## Cc1sc2c(c1C)C(c1ccc(Cl)cc1)=NC(CC(=O)Nc1ccc(O)cc1)c1nnc(C)n1-2 (stereo not given) + Cn1nnc2c(C(N)=O)ncn2c1=O
Second compound 1 µM
  IC50: 0.959 µM
Second compound 3.16 µM
  IC50: 0.808 µM
Second compound 10 µM
  IC50: 1 µM
Second compound 31.6 µM
  IC50: 1.27 µM
Second compound 100 µM
  IC50: 1.57 µM
Second compound 1 µM, first compound 0.00949 µM
  viability, T/C: 83.4%
Second compound 1 µM, first compound 0.03 µM
  viability, T/C: 85%
Second compound 1 µM, first compound 0.0949 µM
  viability, T/C: 74.9%
Second compound 1 µM, first compound 0.3 µM
  viability, T/C: 68.4%
Second compound 1 µM, first compound 0.949 µM
  viability, T/C: 48.8%
Second compound 1 µM, first compound 3 µM
  viability, T/C: 40.3%
Second compound 3.16 µM, first compound 0.00949 µM
  viability, T/C: 79.2%
Second compound 3.16 µM, first compound 0.03 µM
  viability, T/C: 78.7%
Second compound 3.16 µM, first compound 0.0949 µM
  viability, T/C: 81.1%
Second compound 3.16 µM, first compound 0.3 µM
  viability, T/C: 63.2%
Second compound 3.16 µM, first compound 0.949 µM
  viability, T/C: 49.4%
Second compound 3.16 µM, first compound 3 µM
  viability, T/C: 39.6%
Second compound 10 µM, first compound 0.00949 µM
  viability, T/C: 90.6%
Second compound 10 µM, first compound 0.03 µM
  viability, T/C: 78.3%
Second compound 10 µM, first compound 0.0949 µM
  viability, T/C: 76.8%
Second compound 10 µM, first compound 0.3 µM
  viability, T/C: 66.4%
Second compound 10 µM, first compound 0.949 µM
  viability, T/C: 46.8%
Second compound 10 µM, first compound 3 µM
  viability, T/C: 42.5%
Second compound 31.6 µM, first compound 0.00949 µM
  viability, T/C: 87.1%
Second compound 31.6 µM, first compound 0.03 µM
  viability, T/C: 80.2%
Second compound 31.6 µM, first compound 0.0949 µM
  viability, T/C: 70.2%
Second compound 31.6 µM, first compound 0.3 µM
  viability, T/C: 71%
Second compound 31.6 µM, first compound 0.949 µM
  viability, T/C: 52%
Second compound 31.6 µM, first compound 3 µM
  viability, T/C: 38.5%
Second compound 100 µM, first compound 0.00949 µM
  viability, T/C: 92.7%
Second compound 100 µM, first compound 0.03 µM
  viability, T/C: 80.2%
Second compound 100 µM, first compound 0.0949 µM
  viability, T/C: 84.8%
Second compound 100 µM, first compound 0.3 µM
  viability, T/C: 67.8%
Second compound 100 µM, first compound 0.949 µM
  viability, T/C: 55.4%
Second compound 100 µM, first compound 3 µM
  viability, T/C: 42.5%

## [2H]c1nc(C)nc([2H])c1-c1cc(NC[C@@H](C)c2cccc3c(C(=O)NC)ccnc23)ncn1 + Cn1nnc2c(C(N)=O)ncn2c1=O
Second compound 1 µM
  IC50: > 10 µM
Second compound 3.16 µM
  IC50: > 10 µM
Second compound 10 µM
  IC50: > 10 µM
Second compound 31.6 µM
  IC50: > 10 µM
Second compound 100 µM
  IC50: > 10 µM
[1]
  viability, T/C: 115%
[2]
  viability, T/C: 107%
[3]
  viability, T/C: 118%
[4]
  viability, T/C: 112%
[5]
  viability, T/C: 114%
[6]
  viability, T/C: 121%
[7]
  viability, T/C: 114%
[8]
  viability, T/C: 114%
[9]
  viability, T/C: 113%
[10]
  viability, T/C: 101%
[11]
  viability, T/C: 123%
[12]
  viability, T/C: 122%
[13]
  viability, T/C: 112%
[14]
  viability, T/C: 122%
[15]
  viability, T/C: 115%
[16]
  viability, T/C: 110%
[17]
  viability, T/C: 113%
[18]
  viability, T/C: 115%
[19]
  viability, T/C: 103%
[20]
  viability, T/C: 102%
[21]
  viability, T/C: 119%
[22]
  viability, T/C: 120%
[23]
  viability, T/C: 123%
[24]
  viability, T/C: 116%
[25]
  viability, T/C: 141%
[26]
  viability, T/C: 129%
[27]
  viability, T/C: 112%
[28]
  viability, T/C: 116%
[29]
  viability, T/C: 117%
[30]
  viability, T/C: 121%
